Laboratory results from patent US20230365546A1, “5-SUBSTITUTED INDOLE 3-AMIDE DERIVATIVES, PREPARATION METHOD AND USE THEREOF” (ORIGIANT PHARMACEUTICAL CO., LTD, priority 2020, published 2023).

Columns and labels:
Test in all cases: Kinase Profiler 10 μM panel
CLK3(h) = CLK3(h) (Homo sapiens (Human), UniProt P49761)
Protocol: (§1) In vitro kinase assays were conducted using Kinase Profiler services provided by Eurofins. The experimental method was as follows: the small molecule compound to be tested (0.001-10 μM), the protein kinase to be tested were incubated with a buffer containing substrate, 10 mM magnesium acetate, and [γ-^33P-ATP], the reaction was started by adding Mg\TPmix, after incubation for a period of time at room temperature, a 3% phosphate solution was added to the buffer to stop the reaction. Subsequently, 10 μL of the reaction mixture was quantitatively pipetted onto P30 filter paper, which was washed three times with 75 mM phosphate solution and then once with methanol. The P30 filter paper was air-dried and scintillation fluid was added for scintillation counting.

SGK3(h) = SGK3(h) (Homo sapiens (Human), UniProt Q96BR1)
Protocol: as §1

NEK6(h) = NEK6(h) (Homo sapiens (Human), UniProt Q9HC98)
Protocol: as §1

PKA(h) = PKA(h) (Homo sapiens (Human), UniProt P17612)
Protocol: as §1

Aurora-C(h) = Aurora-C(h) (Homo sapiens (Human), UniProt Q9UQB9)
Protocol: as §1

PRP4(h) = PRP4(h) (Homo sapiens (Human), UniProt Q13523); assay type: biochemical
Protocol: as §1

CaMKIβ(h) = CaMKIβ(h) (Homo sapiens (Human), UniProt Q6P2M8)
Protocol: as §1

MYLK2(h) = MYLK2(h) (Homo sapiens (Human), UniProt Q9H1R3)
MYLK2(h), sequence (Q9H1R3 whole entry): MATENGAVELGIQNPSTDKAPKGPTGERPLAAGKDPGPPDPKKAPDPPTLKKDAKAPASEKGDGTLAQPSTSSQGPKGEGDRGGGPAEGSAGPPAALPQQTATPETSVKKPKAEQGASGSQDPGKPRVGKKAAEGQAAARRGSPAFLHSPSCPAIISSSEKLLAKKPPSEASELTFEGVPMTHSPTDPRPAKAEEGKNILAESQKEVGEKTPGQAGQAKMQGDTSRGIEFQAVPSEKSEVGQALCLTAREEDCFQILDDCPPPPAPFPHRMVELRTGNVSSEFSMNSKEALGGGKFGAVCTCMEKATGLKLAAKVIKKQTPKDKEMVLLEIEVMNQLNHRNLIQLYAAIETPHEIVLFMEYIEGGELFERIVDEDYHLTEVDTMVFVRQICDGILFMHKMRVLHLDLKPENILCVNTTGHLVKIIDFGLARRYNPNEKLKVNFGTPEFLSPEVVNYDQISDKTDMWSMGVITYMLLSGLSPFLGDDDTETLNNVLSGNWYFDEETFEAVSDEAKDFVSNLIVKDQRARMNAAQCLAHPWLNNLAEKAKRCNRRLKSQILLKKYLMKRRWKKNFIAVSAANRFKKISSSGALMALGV
Protocol: as §1

TSSK1(h) = TSSK1(h) (Homo sapiens (Human), UniProt Q9BXA7)
Protocol: as §1

NEK4(h) = NEK4(h) (Homo sapiens (Human), UniProt P51957)
Protocol: as §1

Abl(Y253F)(h) = Abl(Y253F)(h) (Homo sapiens (Human), UniProt P00519, Y253F)
Protocol: as §1

Pim-1(h) = Pim-1(h) (Homo sapiens (Human), UniProt P11309)
Protocol: as §1

MELK(h) = MELK(h) (Homo sapiens (Human), UniProt Q14680)
Protocol: as §1

MRCKα(h) = MRCKα(h) (Homo sapiens (Human), UniProt Q5VT25)
Protocol: as §1

Txk(h) = Txk(h) (Homo sapiens (Human), UniProt P42681)
Protocol: as §1

Rsk1(r) = Rsk1(r) (Rattus norvegicus (Rat), UniProt Q63531)
Rsk1(r), sequence (Q63531 whole entry): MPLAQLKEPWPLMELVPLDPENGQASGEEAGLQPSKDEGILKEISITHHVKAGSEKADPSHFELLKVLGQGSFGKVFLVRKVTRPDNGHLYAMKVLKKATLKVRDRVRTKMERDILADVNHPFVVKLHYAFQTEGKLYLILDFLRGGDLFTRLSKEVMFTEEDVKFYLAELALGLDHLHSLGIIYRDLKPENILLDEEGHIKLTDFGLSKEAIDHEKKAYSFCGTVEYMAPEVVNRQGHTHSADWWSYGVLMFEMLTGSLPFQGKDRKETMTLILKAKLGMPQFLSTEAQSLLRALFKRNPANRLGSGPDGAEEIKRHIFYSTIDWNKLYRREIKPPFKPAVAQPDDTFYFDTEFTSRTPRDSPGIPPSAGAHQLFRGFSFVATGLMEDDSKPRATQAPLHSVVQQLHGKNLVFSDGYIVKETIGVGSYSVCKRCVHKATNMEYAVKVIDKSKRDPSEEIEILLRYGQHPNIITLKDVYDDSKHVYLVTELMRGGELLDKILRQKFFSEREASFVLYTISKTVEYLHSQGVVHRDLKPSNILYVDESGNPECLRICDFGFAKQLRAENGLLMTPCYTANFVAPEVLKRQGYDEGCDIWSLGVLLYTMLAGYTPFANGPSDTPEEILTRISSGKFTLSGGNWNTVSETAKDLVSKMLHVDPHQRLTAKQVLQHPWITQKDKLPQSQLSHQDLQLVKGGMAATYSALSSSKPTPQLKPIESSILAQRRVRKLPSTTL
Protocol: as §1

[1] = target: PI3 Kinase (p110a/p85a)(h) (Homo sapiens (Human), UniProt P42336)
Protocol: The experimental method was as follows: the small molecule compound to be tested (0.001-10 μM), the protein kinase to be tested were incubated with a buffer containing substrate, 10 mM magnesium acetate, and [γ-^33P-ATP], the reaction was started by adding Mg\TPmix, after incubation for a period of time at room temperature, a 3% phosphate solution was added to the buffer to stop the reaction. Subsequently, 10 μL of the reaction mixture was quantitatively pipetted onto P30 filter paper, which was washed three times with 75 mM phosphate solution and then once with methanol. The P30 filter paper was air-dried and scintillation fluid was added for scintillation counting.

ErbB4(h) = ErbB4(h) (Homo sapiens (Human), UniProt Q15303)
Protocol: as §1

SGK(h) = SGK(h) (Homo sapiens (Human), UniProt O00141)
Protocol: as §1

IRR(h) = IRR(h) (Homo sapiens (Human), UniProt P14616)
Protocol: as §1

Fgr(h) = Fgr(h) (Homo sapiens (Human), UniProt P09769)
Protocol: as §1

Aurora-A(h) = Aurora-A(h) (Homo sapiens (Human), UniProt O14965)
Aurora-A(h), sequence (O14965 whole entry): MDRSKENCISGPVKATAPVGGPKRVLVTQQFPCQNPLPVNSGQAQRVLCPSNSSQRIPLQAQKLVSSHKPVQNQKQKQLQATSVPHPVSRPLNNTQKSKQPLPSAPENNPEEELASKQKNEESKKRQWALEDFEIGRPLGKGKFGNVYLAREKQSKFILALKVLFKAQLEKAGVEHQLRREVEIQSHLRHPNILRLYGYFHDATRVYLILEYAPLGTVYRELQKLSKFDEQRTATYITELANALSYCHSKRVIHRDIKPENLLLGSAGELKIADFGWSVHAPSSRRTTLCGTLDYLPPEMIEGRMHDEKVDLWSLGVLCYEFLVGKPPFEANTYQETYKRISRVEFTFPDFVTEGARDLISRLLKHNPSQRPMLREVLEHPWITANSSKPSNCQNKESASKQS
Protocol: as §1

GSK3β(h) = GSK3β(h) (Homo sapiens (Human), UniProt P49841)
GSK3β(h), sequence (P49841 whole entry): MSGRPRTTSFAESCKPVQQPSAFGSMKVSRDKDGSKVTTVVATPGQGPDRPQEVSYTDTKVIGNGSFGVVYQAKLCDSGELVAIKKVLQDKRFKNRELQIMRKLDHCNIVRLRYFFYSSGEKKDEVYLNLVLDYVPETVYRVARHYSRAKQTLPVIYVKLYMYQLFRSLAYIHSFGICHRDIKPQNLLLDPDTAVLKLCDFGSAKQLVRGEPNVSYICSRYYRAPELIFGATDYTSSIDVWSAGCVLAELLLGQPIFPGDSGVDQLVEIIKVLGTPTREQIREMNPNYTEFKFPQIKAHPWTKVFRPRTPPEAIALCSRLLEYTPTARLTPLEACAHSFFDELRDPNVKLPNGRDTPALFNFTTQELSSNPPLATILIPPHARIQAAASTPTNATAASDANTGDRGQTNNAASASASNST
Protocol: as §1

Axl(h) = Axl(h) (Homo sapiens (Human), UniProt P30530)
Axl(h), sequence (P30530 26-894): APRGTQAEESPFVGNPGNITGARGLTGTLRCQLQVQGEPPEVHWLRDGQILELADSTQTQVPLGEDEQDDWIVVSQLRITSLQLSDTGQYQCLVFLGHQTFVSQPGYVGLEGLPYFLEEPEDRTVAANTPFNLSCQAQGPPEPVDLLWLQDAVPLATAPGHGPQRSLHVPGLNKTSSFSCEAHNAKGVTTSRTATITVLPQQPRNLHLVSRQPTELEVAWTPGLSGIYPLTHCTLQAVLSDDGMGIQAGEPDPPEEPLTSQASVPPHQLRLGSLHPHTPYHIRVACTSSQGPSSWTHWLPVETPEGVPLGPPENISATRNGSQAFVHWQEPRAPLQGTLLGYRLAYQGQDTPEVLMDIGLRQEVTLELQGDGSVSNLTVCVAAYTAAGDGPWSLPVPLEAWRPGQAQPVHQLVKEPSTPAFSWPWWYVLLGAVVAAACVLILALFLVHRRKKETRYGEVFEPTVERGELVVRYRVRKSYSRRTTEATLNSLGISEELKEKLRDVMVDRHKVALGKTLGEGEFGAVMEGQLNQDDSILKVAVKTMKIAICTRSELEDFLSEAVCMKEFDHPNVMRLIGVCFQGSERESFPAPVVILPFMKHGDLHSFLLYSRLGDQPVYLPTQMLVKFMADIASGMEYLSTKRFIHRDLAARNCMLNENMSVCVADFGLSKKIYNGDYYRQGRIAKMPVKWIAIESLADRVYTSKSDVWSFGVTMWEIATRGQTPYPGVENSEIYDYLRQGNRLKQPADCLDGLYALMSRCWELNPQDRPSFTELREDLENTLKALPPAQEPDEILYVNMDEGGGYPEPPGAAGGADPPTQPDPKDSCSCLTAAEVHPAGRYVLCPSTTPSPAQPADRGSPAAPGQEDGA
Protocol: as §1

NIM1(h) = NIM1(h) (Homo sapiens (Human), UniProt Q8IY84)
NIM1(h), sequence (Q8IY84 whole entry): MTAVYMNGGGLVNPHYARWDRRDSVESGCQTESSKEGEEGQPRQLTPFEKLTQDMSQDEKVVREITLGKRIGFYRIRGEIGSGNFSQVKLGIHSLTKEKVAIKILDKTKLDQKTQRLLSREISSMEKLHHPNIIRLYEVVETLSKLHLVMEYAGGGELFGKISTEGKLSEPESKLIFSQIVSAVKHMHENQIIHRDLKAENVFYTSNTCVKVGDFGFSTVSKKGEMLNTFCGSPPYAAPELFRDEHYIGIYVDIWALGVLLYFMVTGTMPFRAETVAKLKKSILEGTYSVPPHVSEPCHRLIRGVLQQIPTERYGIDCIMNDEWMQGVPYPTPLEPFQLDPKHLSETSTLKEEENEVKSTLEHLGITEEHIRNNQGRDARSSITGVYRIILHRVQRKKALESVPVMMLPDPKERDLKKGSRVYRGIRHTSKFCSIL
Protocol: as §1

JAK1(h) = JAK1(h) (Homo sapiens (Human), UniProt P23458)
Protocol: as §1

CK1γ1(h) = CK1γ1(h) (Homo sapiens (Human), UniProt Q9HCP0)
Protocol: as §1

LTK(h) = LTK(h) (Homo sapiens (Human), UniProt P29376)
Protocol: as §1

CHK2(R145W)(h) = CHK2(R145W)(h) (Homo sapiens (Human), UniProt O96017, R145W)
Protocol: as §1

GRK1(h) = GRK1(h) (Homo sapiens (Human), UniProt Q15835)
Protocol: as §1

Wee1B(h) = Wee1B(h) (Homo sapiens (Human), UniProt P0C1S8)
Protocol: as §1

[2] = target: PI3 Kinase (p110b/p85a)(m) (Mus musculus (Mouse), UniProt Q8BTI9)
Protocol: as §1

DRAK1(h) = DRAK1(h) (Homo sapiens (Human), UniProt Q9UEE5)
DRAK1(h), sequence (Q9UEE5 whole entry): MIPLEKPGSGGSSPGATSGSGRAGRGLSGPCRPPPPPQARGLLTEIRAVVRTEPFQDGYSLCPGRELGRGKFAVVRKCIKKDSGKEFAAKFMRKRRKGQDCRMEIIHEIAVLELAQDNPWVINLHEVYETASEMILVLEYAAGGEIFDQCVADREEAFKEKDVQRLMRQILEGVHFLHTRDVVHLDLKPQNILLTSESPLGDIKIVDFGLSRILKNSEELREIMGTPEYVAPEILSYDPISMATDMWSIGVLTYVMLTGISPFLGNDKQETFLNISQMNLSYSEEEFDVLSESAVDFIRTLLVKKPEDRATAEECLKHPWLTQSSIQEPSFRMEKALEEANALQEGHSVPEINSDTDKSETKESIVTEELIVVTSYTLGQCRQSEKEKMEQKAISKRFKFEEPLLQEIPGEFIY
Protocol: as §1

GRK6(h) = GRK6(h) (Homo sapiens (Human), UniProt P43250)
GRK6(h), sequence (P43250 whole entry): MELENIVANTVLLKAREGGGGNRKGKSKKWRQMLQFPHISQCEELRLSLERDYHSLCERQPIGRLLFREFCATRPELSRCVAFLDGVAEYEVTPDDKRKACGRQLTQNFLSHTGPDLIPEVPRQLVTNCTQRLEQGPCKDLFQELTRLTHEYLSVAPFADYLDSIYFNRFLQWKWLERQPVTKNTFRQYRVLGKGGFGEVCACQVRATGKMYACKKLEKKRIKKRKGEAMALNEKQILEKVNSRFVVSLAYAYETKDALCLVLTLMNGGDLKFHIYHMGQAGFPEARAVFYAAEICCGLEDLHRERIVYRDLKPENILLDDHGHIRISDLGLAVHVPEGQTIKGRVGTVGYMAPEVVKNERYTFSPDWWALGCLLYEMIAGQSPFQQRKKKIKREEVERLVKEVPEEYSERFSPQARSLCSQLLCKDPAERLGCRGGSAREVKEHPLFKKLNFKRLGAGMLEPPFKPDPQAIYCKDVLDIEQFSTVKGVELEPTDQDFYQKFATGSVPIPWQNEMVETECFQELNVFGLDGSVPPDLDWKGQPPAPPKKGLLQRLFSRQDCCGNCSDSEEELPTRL
Protocol: as §1

CLK3(h), sequence (P49761 whole entry): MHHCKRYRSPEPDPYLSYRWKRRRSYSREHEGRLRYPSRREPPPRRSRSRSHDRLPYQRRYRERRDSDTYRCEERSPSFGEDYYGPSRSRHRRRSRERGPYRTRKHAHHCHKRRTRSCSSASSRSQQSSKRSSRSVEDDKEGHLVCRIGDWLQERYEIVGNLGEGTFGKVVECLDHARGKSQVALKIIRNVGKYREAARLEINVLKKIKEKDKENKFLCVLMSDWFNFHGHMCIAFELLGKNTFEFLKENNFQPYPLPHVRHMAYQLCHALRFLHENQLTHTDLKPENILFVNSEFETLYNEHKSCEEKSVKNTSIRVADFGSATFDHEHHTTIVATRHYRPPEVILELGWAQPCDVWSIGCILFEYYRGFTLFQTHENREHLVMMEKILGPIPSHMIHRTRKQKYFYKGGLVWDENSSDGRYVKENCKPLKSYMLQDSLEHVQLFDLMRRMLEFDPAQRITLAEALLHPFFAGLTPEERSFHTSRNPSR

`C[C@H](NC(=O)c1c[nH]c2ccc(-c3ccc4nc(NC(=O)C5CC5)sc4c3)cc12)c1cccc(F)c1` [Compound 34, (S)-5-(2-(cyclopropanecarboxamido)benzo[d]thiazol-6-yl)-N-(1-(3-fluorophenyl)ethyl)-1H-indole-3-carboxamide] was tested, and the Inhibition ratio (CLK3(h)) was 35%, the Inhibition ratio (SGK3(h)) was −1% and the Inhibition ratio (NEK6(h)) was 4%. The Inhibition ratio (PKA(h)) was −12%, the Inhibition ratio (Aurora-C(h)) was 26% and the Inhibition ratio (PRP4(h)) was 4%. For the same compound, the Inhibition ratio (CaMKIβ(h)) was 11%, the Inhibition ratio (MYLK2(h)) was 55% and the Inhibition ratio (TSSK1(h)) was 12%. It also gave an Inhibition ratio (NEK4(h)) of 30%, an Inhibition ratio (Abl(Y253F)(h)) of 95% and an Inhibition ratio (Pim-1(h)) of 3%. For the same compound, the Inhibition ratio (MELK(h)) was 36%, the Inhibition ratio (MRCKα(h)) was 12% and the Inhibition ratio (Txk(h)) was 47%. It also gave an Inhibition ratio (Rsk1(r)) of 45%, an Inhibition ratio [1] of 23% and an Inhibition ratio (ErbB4(h)) of 22%. For the same compound, the Inhibition ratio (SGK(h)) was 2%, the Inhibition ratio (IRR(h)) was 50% and the Inhibition ratio (Fgr(h)) was 42%. The Inhibition ratio (Aurora-A(h)) was 37%, the Inhibition ratio (GSK3β(h)) was 13% and the Inhibition ratio (Axl(h)) was 86%. The Inhibition ratio (NIM1(h)) was −19%, the Inhibition ratio (JAK1(h)) was 26% and the Inhibition ratio (CK1γ1(h)) was 5%. For the same compound, the Inhibition ratio (LTK(h)) was 23%, the Inhibition ratio (CHK2(R145W)(h)) was 37% and the Inhibition ratio (GRK1(h)) was −24%. The Inhibition ratio (Wee1B(h)) was −2%, the Inhibition ratio [2] was 15% and the Inhibition ratio (DRAK1(h)) was 38%. It also gave an Inhibition ratio (GRK6(h)) of 0%.

Work on `C[C@H](NC(=O)c1cn(C)c2ccc(-c3ccn4nc(NC(=O)C5CC5)nc4c3)cc12)c1cccc(F)c1` [Compound 94, (S)-5-(2-(cyclopropanecarboxamido)-[1,2,4]triazolo[1,5-a]pyridin-7-yl)-N-(1-(3-fluorophenyl)ethyl)-1-methyl-1H-indole-3-carboxamide] yielded an Inhibition ratio/% (CLK3(h)) of 35%, an Inhibition ratio/% (SGK3(h)) of 41% and an Inhibition ratio/% (NEK6(h)) of 23%. It also gave an Inhibition ratio/% (PKA(h)) of 55%, an Inhibition ratio/% (Aurora-C(h)) of 15% and an Inhibition ratio/% (PRP4(h)) of 5%. The Inhibition ratio/% (CaMKIβ(h)) was 31%, the Inhibition ratio/% (MYLK2(h)) was −8% and the Inhibition ratio/% (TSSK1(h)) was −8%. The Inhibition ratio/% (NEK4(h)) was 27%, the Inhibition ratio/% (Abl(Y253F)(h)) was 23% and the Inhibition ratio/% (Pim-1(h)) was 9%. The Inhibition ratio/% (MELK(h)) was 1%, the Inhibition ratio/% (MRCKα(h)) was −19% and the Inhibition ratio/% (Txk(h)) was −12%. The Inhibition ratio/% (Rsk1(r)) was 20%, the Inhibition ratio/% [1] was 3% and the Inhibition ratio/% (ErbB4(h)) was 63%. The Inhibition ratio/% (SGK(h)) was 51%, the Inhibition ratio/% (IRR(h)) was 33% and the Inhibition ratio/% (Fgr(h)) was 8%. For the same compound, the Inhibition ratio/% (Aurora-A(h)) was −7%, the Inhibition ratio/% (GSK3β(h)) was 1% and the Inhibition ratio/% (Axl(h)) was 31%. It also gave an Inhibition ratio/% (NIM1(h)) of 10%, an Inhibition ratio/% (JAK1(h)) of 52% and an Inhibition ratio/% (CK1γ1(h)) of 19%. It also gave an Inhibition ratio/% (LTK(h)) of 5%, an Inhibition ratio/% (CHK2(R145W)(h)) of 69% and an Inhibition ratio/% (GRK1(h)) of 52%. It also gave an Inhibition ratio/% (Wee1B(h)) of −2%, an Inhibition ratio/% [2] of 10% and an Inhibition ratio/% (DRAK1(h)) of 30%. It also gave an Inhibition ratio/% (GRK6(h)) of 2%.
